# Test results: patent publication US4237116A, “Combination of thiopeptin and rumensin to improve ruminant feed efficiency” (Merck & Co., Inc., priority 1979, dated 1980)
# Tested on: ruminants (cattle)
# Assay: Propionate content of rumen fluid in cattle given medicated feed (high roughage diet, then shifted to high grain diet)
# Format: in vivo
# Method: The synergistic effect of the combination of thiopeptin and rumensin has been observed by administering the two compounds to ruminants on a controlled diet and taking periodic samples of rumen fluid. The amount of each of the volatile fatty acids present in the rumen fluid is measured and compared with that of animals taking no medication and also with animals given only one of the two compounds. This effect has been observed in ruminants on diets of both the high roughage and high grain types. […] Animals given the same diet but with 8.25 ppm of thiopeptin in the diet for 7 days had 25.87 mole % of propionate. Animals given 16.5 ppm of rumensin for 7 days had 25.81 mole % of propionate. […] In the same test, the animal's feed was then shifted to a high grain diet and after 2 days rumen samples again taken. The control animals had 21.73 mole % of propionate. The thiopeptin treated animals (at the same dose as the first test) had 27.31 mole % propionate. The rumensin treated animals (again at the same dose as previously) had 25.95 mole % of propionate.
# [1] = high roughage diet, drug in the diet for 7 days, thiopeptin 8.25 ppm, rumensin 16.5 ppm, combination 8.25 ppm + 16.5 ppm, control animals 24.16 mole %
# [2] = same test after shift to high grain diet, rumen samples after 2 days, same doses (thiopeptin 8.25 ppm, rumensin 16.5 ppm, combination of both), control animals 21.73 mole %
Compound,propionate in the rumen fluid [1] [mole %],propionate in the rumen fluid [2] [mole %]
"CC[C@@]1([C@H]2O[C@H]([C@H]3O[C@@](O)(CO)[C@H](C)C[C@@H]3C)C[C@H]2C)CC[C@H]([C@@]2(C)CC[C@]3(C[C@H](O)[C@@H](C)[C@@H]([C@H](C)[C@H](OC)[C@@H](C)C(=O)[O-])O3)O2)O1.[Na+] [rumensin, Rumensin]",25.81,25.95
Thiopeptin,25.87,27.31
